What was measured:
Assay in all cases: Bliss excess, mean over the matrix (fraction); higher = more synergy
[1] = system: 22RV1 (Prostate Carcinoma)
Outline: (§1)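 Cell lines grown in DMEM/F12 or RPMI with 10% FBS were plated in 1536-well plates and held 24 hours at 37°C, 5% CO2 before 72 hours of exposure to two-drug dose matrices, with DMSO typically at 0.2%. CellTiter-Glo 2.0 luminescence gave viability, which was converted to inhibition. Vehicle wells were set to 0 and blank wells to 1. Combination Emax is the second-highest inhibition in the matrix, and Bliss excess is the observed combination effect minus the expected EA + EB − EA·EB, where EA and EB are the single-agent effects.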

A204 (Rhabdomyosarcoma) = system: A204 (Rhabdomyosarcoma)
Outline: as §1

[2] = system: A2780 (Ovarian Carcinoma)
Outline: as §1

[3] = system: CA46 (Burkitt's Lymphoma)
Outline: as §1

[4] = system: DMS-53 (Small Cell Lung Carcinoma)
Outline: as §1

[5] = system: EPLC-272H (Other Solid Carcinomas)
Outline: as §1

[6] = system: GA-10 (Burkitt's Lymphoma)
Outline: as §1

[7] = system: HCC1395 (Breast Carcinoma)
Outline: as §1

[8] = system: HCC1428 (Breast Carcinoma)
Outline: as §1

HCC70 (Breast Carcinoma) = system: HCC70 (Breast Carcinoma)
Outline: as §1

[9] = system: JHU-022 (Oral Cavity Carcinoma)
Outline: as §1

[10] = system: JIMT-1 (Breast Carcinoma)
Outline: as §1

[11] = system: Jurkat (T-Lymphoblastic Leukemia)
Outline: as §1

[12] = system: LS-411N (Colorectal Carcinoma)
Outline: as §1

[13] = system: NCI-H2087 (Lung Adenocarcinoma)
Outline: as §1

[14] = system: NCI-H2228 (Lung Adenocarcinoma)
Outline: as §1

[15] = system: OACp4C (Esophageal Adenocarcinoma)
Outline: as §1

RH-41 (Rhabdomyosarcoma) = system: RH-41 (Rhabdomyosarcoma)
Outline: as §1

[16] = system: SW620 (Colorectal Carcinoma)
Outline: as §1

WM1552C (Melanoma) = system: WM1552C (Melanoma)
Outline: as §1

Row | SMILES | Bliss excess [1] | Bliss excess (A204 (Rhabdomyosarcoma)) | Bliss excess [2] | Bliss excess [3] | Bliss excess [4] | Bliss excess [5] | Bliss excess [6] | Bliss excess [7] | Bliss excess [8] | Bliss excess (HCC70 (Breast Carcinoma)) | Bliss excess [9] | Bliss excess [10] | Bliss excess [11] | Bliss excess [12] | Bliss excess [13] | Bliss excess [14] | Bliss excess [15] | Bliss excess (RH-41 (Rhabdomyosarcoma)) | Bliss excess [16] | Bliss excess (WM1552C (Melanoma))
1 | NC1(C(=O)N[C@@H](CCO)c2ccc(Cl)cc2)CCN(c2ncnc3[nH]ccc23)CC1 [Capivasertib] + CC(C)n1c(=O)n(C)c2cnc3cc(F)c(-c4ccc(OCCCN5CCCCC5)nc4)cc3c21 [AZD1390] (first compound max 10 µM, 7x7, partner max 0.3 µM) | -0.0886 | -0.0575 | -0.0885 | -0.049 | 0.0083 | -0.13 | -0.028 | 0.0154 | -0.0538 | -0.023 | -0.0564 | -0.0118 | -0.047 | -0.0267 | -0.0378 | -0.0728 | -0.0479 | -0.0364 | -0.0529 | -0.0474
2 | NC1(C(=O)N[C@@H](CCO)c2ccc(Cl)cc2)CCN(c2ncnc3[nH]ccc23)CC1 [Capivasertib] + CCN(CCO)CCCOc1ccc2c(Nc3cc(CC(=O)Nc4cccc(F)c4)[nH]n3)ncnc2c1 [AZD2811] (first compound max 10 µM, 7x7, partner max 1 µM) | -0.0373 | -0.0058 | 0.05 | -0.0519 | 0.0225 | 0.0027 | -0.111 | 0.001 | 0.0066 | -0.0506 | -0.0261 | 0.0154 | -0.0289 | -0.0556 | -0.0243 | -0.041 | -0.0332 | 0.0097 | -0.029 | -0.0378
3 | NC1(C(=O)N[C@@H](CCO)c2ccc(Cl)cc2)CCN(c2ncnc3[nH]ccc23)CC1 [Capivasertib] + COc1nnc2ccc(N3CCC(c4ccc(OCCN5CCN(C)C(=O)[C@H]5C)cc4)CC3)nn12 [AZD5153] (first compound max 10 µM, 7x7, partner max 1 µM) | 0.0032 | 0.006 | -0.0148 | -0.0183 | -0.0195 | -0.0025 | -0.0148 | -0.0381 | -0.0596 | 0.0422 | 0.0019 | 0.0698 | 0.0593 | 0.11 | 0.0179 | 0.036 | 0.0153 | 0.0198 | 0.0026 | -0.0366
4 | NC1(C(=O)N[C@@H](CCO)c2ccc(Cl)cc2)CCN(c2ncnc3[nH]ccc23)CC1 [Capivasertib] + C[C@@H]1COCCN1C2=NC(=NC(=C2)C3(CC3)[S@](=N)(=O)C)C4=C5C=CNC5=NC=C4 [AZD6738] (first compound max 10 µM, 7x7, partner max 10 µM) | -0.0527 | -0.0201 | -0.0336 | 0.0324 | -0.0279 | -0.0353 | -0.0303 | -0.0687 | -0.0066 | -0.0586 | -0.041 | -0.0321 | -0.0403 | -0.0605 | -0.0071 | -0.0617 | -0.0402 | -0.0389 | -0.0475 | -0.062
5 | NC1(C(=O)N[C@@H](CCO)c2ccc(Cl)cc2)CCN(c2ncnc3[nH]ccc23)CC1 [Capivasertib] + Cn1cnc2c(F)c(Nc3ccc(Br)cc3Cl)c(C(=O)NOCCO)cc21 [Selumetinib] (first compound max 10 µM, 7x7, partner max 10 µM) | -0.0044 | 0.0013 | 0.0151 | 0.0039 | 0.0155 | 0.128 | -0.0442 | 0.033 | 0.0149 | 0.18 | -0.0397 | 0.0449 | 0.009 | 0.0005 | 0.016 | 0.017 | -0.0318 | 0.0251 | 0.0186 | 0.036
6 | COc1cccc2c1C(=O)c1c(O)c3c(c(O)c1C2=O)C[C@@](O)(C(=O)CO)C[C@@H]3O[C@H]1C[C@H](N)[C@H](O)[C@H](C)O1 [Doxorubicin] + Cc1cc2ncnn2cc1Nc1ncc2c(n1)n(C1CCOCC1)c(=O)n2C [AZD7648] (first compound max 1 µM, 7x7, partner max 10 µM) | -0.0351 | 0.0782 | 0.0194 | 0.0813 | 0.0197 | 0.0568 | 0.0964 | -0.0234 | -0.0499 | 0.0344 | -0.0307 | 0.0514 | 0.181 | 0.0365 | 0.0107 | 0.0042 | 0.0636 | 0.116 | 0.0335 | 0.0398
7 | CS(=O)(=O)CCNCc1ccc(-c2ccc3ncnc(Nc4ccc(OCc5cccc(F)c5)c(Cl)c4)c3c2)o1 [Lapatinib] + C[C@@H](Oc1cc(-c2cnn(C3CCNCC3)c2)cnc1N)c1c(Cl)ccc(F)c1Cl [Crizotinib] (first compound max 10 µM, 7x7, partner max 10 µM) | -0.108 | -0.0279 | -0.0277 | 0.0216 | -0.0205 | 0.0191 | -0.0218 | -0.0724 | -0.043 | -0.0208 | -0.0541 | 0.0444 | 0.0331 | -0.033 | -0.0499 | 0.0163 | -0.0355 | -0.0054 | -0.0736 | -0.0534
8 | CC(=O)c1c(C)c2cnc(Nc3ccc(N4CCNCC4)cn3)nc2n(C2CCCC2)c1=O [Palbociclib] + CC1(C)CCC(CN2CCN(c3ccc(C(=O)NS(=O)(=O)c4ccc(NCC5CCOCC5)c([N+](=O)[O-])c4)c(Oc4cnc5[nH]ccc5c4)c3)CC2)=C(c2ccc(Cl)cc2)C1 [Venetoclax] (first compound max 10 µM, 7x7, partner max 1 µM) | -0.0571 | 0.0194 | 0.0005 | -0.0004 | 0.0325 | -0.0106 | -0.0895 | -0.0472 | -0.0378 | -0.0356 | -0.0613 | -0.0448 | 0.0157 | -0.0247 | -0.0596 | 0.005 | -0.0167 | -0.0019 | -0.0248 | -0.0334
9 | CC(=O)c1c(C)c2cnc(Nc3ccc(N4CCNCC4)cn3)nc2n(C2CCCC2)c1=O [Palbociclib] + Cc1c2c(nn1C)CSCc1cc(n(C)n1)CSc1cc(c3ccccc3c1)OCCCc1c(C(=O)O)n(C)c3c-2c(Cl)ccc13 [AZD5991] (first compound max 10 µM, 7x7, partner max 1 µM) | -0.0781 | -0.026 | -0.0344 | -0.0242 | 0.044 | -0.0979 | -0.0211 | -0.0403 | -0.033 | -0.0171 | -0.0971 | -0.0348 | -0.083 | -0.0397 | -0.0561 | -0.0537 | -0.064 | -0.0028 | -0.0292 | -0.0565
10 | CC(=O)c1c(C)c2cnc(Nc3ccc(N4CCNCC4)cn3)nc2n(C2CCCC2)c1=O [Palbociclib] + Cn1cnc2c(F)c(Nc3ccc(Br)cc3Cl)c(C(=O)NOCCO)cc21 [Selumetinib] (first compound max 10 µM, 7x7, partner max 10 µM) | 0.0328 | -0.0261 | 0.0327 | -0.0504 | -0.0207 | 0.024 | -0.0193 | -0.0529 | -0.0235 | 0.055 | 0.0858 | -0.0436 | -0.0297 | 0.0131 | -0.0101 | -0.0822 | -0.0359 | -0.0076 | 0.0191 | -0.0078
11 | COc1cccc(OCCCN)c1-c1cc(Nc2cnc(C#N)cn2)n[nH]1 [Prexasertib] + C=CCn1c(=O)c2cnc(Nc3ccc(N4CCN(C)CC4)cc3)nc2n1-c1cccc(C(C)(C)O)n1 [AZD1775] (first compound max 1 µM, partner max 1 µM) | 0.06 | 0.0437 | 0.155 | 0.0924 | 0.0883 | -0.0284 | 0.0653 | 0.0111 | 0.138 | 0.0723 | 0.0861 | 0.032 | 0.0561 | -0.0017 | 0.0576 | 0.0199 | -0.0189 | 0.0677 | 0.0478 | 0.0412
12 | COc1cccc(OCCCN)c1-c1cc(Nc2cnc(C#N)cn2)n[nH]1 [Prexasertib] + CCc1c2c(nc3ccc(O)cc13)-c1cc3c(c(=O)n1C2)COC(=O)[C@]3(O)CC [SN-38] (first compound max 1 µM, 7x7, partner max 0.3 µM) | -0.0649 | -0.0375 | -0.0528 | 0.0035 | -0.0377 | -0.0229 | 0.0088 | -0.0466 | 0.045 | -0.0259 | -0.112 | 0.0096 | -0.005 | 0.0331 | -0.0495 | -0.0569 | 0.0186 | 0.0029 | 0.0603 | -0.0306
13 | COc1cccc(OCCCN)c1-c1cc(Nc2cnc(C#N)cn2)n[nH]1 [Prexasertib] + CN(C)CCCOc1ccc(-c2ccc3ncc4c(c3c2)n(C2CCOCC2)c(=O)n4C)cn1 [AZD0156] (first compound max 1 µM, 7x7, partner max 1 µM) | -0.0213 | -0.018 | 0.0127 | 0.0713 | -0.0142 | -0.0602 | 0.0213 | -0.046 | -0.0703 | -0.0319 | -0.0231 | 0.0375 | -0.0264 | -0.0336 | -0.0405 | -0.0488 | -0.0162 | -0.0209 | -0.0032 | -0.0036
14 | COc1cccc(OCCCN)c1-c1cc(Nc2cnc(C#N)cn2)n[nH]1 [Prexasertib] + C[C@@H]1COCCN1C2=NC(=NC(=C2)C3(CC3)[S@](=N)(=O)C)C4=C5C=CNC5=NC=C4 [AZD6738] (first compound max 1 µM, 7x7, partner max 10 µM) | 0.0209 | -0.0542 | -0.0173 | -0.0755 | 0.032 | -0.0656 | -0.0023 | -0.0399 | -0.02 | -0.0133 | -0.0238 | 0.0026 | -0.0076 | -0.0349 | 0.0072 | -0.0434 | -0.0882 | -0.0423 | 0.013 | -0.0372
15 | COc1cccc(OCCCN)c1-c1cc(Nc2cnc(C#N)cn2)n[nH]1 [Prexasertib] + Cc1cc2ncnn2cc1Nc1ncc2c(n1)n(C1CCOCC1)c(=O)n2C [AZD7648] (first compound max 1 µM, 7x7, partner max 10 µM) | -0.0316 | -0.091 | 0.0097 | -0.0182 | -0.0344 | -0.0481 | -0.0051 | -0.0527 | -0.0714 | -0.0053 | -0.0661 | -0.0205 | -0.0008 | -0.0082 | 0.008 | -0.0487 | 0.0093 | -0.0453 | -0.0177 | -0.0385
